Assays:
[1] = tested on: clinically isolated HIV strain L; assay: Antiviral spectrum, cellular assay (fold resistance), strain L; assay type: cell-based; conditions: FR=EC50(mutant strain)/EC50(HIV-1 strain LAI)
Description: (§1) HIV- or mock-infected MT4 cells were incubated for five days in the presence of various concentrations of the inhibitor. At the end of the incubation period, all HIV-infected cells have been killed by the replicating virus in the control cultures in the absence of any inhibitor. Cell viability is measured by measuring the concentration of MTT, a yellow, water soluble tetrazolium dye that is converted to a purple, water insoluble formazan in the mitochondria of living cells only. Upon solubilization of the resulting formazan crystals with isopropanol, the absorbance of the solution is monitored at 540 nm. The values correlate directly to the number of living cells remaining in the culture at the completion of the five day incubation. The inhibitory activity of the compound was monitored on the virus-infected cells and was expressed as EC50 and EC90. These values represent the amount of the compound required to protect 50% and 90%, respectively, of the cells from the cytopathogenic effect of the virus. The toxicity of the compound was measured on the mock-infected cells and was expressed as CC50, which represents the concentration of compound required to inhibit the growth of the cells by 50%. The selectivity index (SI) (ratio CC50/EC50) is an indication of the selectivity of the anti-HIV activity of the inhibitor.
(§2) Because of the increasing emergence of drug resistant HIV strains, the present compounds were tested for their potency against clinically isolated HIV strains harboring several mutations. These mutations are associated with resistance to protease inhibitors and result in viruses that show various degrees of phenotypic cross-resistance to the currently commercially available drugs such as for instance saquinavir, ritonavir, nelfinavir, indinavir and amprenavir.
(§3) As a measure of the broad spectrum activity of the present compounds, the fold resistance (FR) defined as FR=EC50(mutant strain)/EC50(HIV-1 strain LAI).

[2] = tested on: clinically isolated HIV strain E; assay: Antiviral spectrum, cellular assay (fold resistance), strain E; assay type: cell-based; conditions: FR=EC50(mutant strain)/EC50(HIV-1 strain LAI)
Description: as §1, §2, §3

virus strain S (R13080) = assay: microbe, parasite or virus in culture; assay type: cell-based, HIV; conditions: FR=EC50(mutant strain)/EC50(HIV-1 strain LAI); strain S
In short: (§4)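 MT4 cells, HIV- or mock-infected, were cultured five days with a range of inhibitor concentrations, and viability was then read by MTT conversion to formazan (isopropanol-solubilized, A540 nm). EC50/EC90 are the concentrations protecting 50%/90% of infected cells from viral cytopathic effect. Fold resistance = EC50(mutant strain)/EC50(HIV-1 LAI).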

virus strain F (R13025) = assay: microbe, parasite or virus in culture; assay type: cell-based, HIV; conditions: FR=EC50(mutant strain)/EC50(HIV-1 strain LAI); strain F
In short: as §4

[3] = tested on: clinically isolated HIV strain C; assay: Antiviral spectrum, cellular assay (fold resistance), strain C; assay type: cell-based; conditions: FR=EC50(mutant strain)/EC50(HIV-1 strain LAI)
Description: as §1, §2, §3

[4] = tested on: clinically isolated HIV strain N; assay: Antiviral spectrum, cellular assay (fold resistance), strain N; assay type: cell-based; conditions: FR=EC50(mutant strain)/EC50(HIV-1 strain LAI)
Description: as §1, §2, §3

[5] = tested on: clinically isolated HIV strain R; assay: Antiviral spectrum, cellular assay (fold resistance), strain R; assay type: cell-based; conditions: FR=EC50(mutant strain)/EC50(HIV-1 strain LAI)
Description: as §1, §2, §3

[6] = tested on: clinically isolated HIV strain G; assay: Antiviral spectrum, cellular assay (fold resistance), strain G; assay type: cell-based; conditions: FR=EC50(mutant strain)/EC50(HIV-1 strain LAI)
Description: as §1, §2, §3

[7] = tested on: clinically isolated HIV strain H; assay type: cell-based; conditions: FR=EC50(mutant strain)/EC50(HIV-1 strain LAI)
In short: as §4

[8] = tested on: clinically isolated HIV strain J; assay type: cell-based; conditions: FR=EC50(mutant strain)/EC50(HIV-1 strain LAI)
In short: as §4

[9] = tested on: clinically isolated HIV strain I; assay type: cell-based; conditions: FR=EC50(mutant strain)/EC50(HIV-1 strain LAI)
In short: as §4

[10] = tested on: clinically isolated HIV strain T; assay type: cell-based; conditions: FR=EC50(mutant strain)/EC50(HIV-1 strain LAI)
In short: as §4

[11] = tested on: clinically isolated HIV strain O; assay type: cell-based; conditions: FR=EC50(mutant strain)/EC50(HIV-1 strain LAI)
In short: as §4

[12] = tested on: clinically isolated HIV strain P; assay: Antiviral spectrum, cellular assay (fold resistance), strain P; assay type: cell-based; conditions: FR=EC50(mutant strain)/EC50(HIV-1 strain LAI)
Description: as §1, §2, §3

[13] = tested on: clinically isolated HIV strain K; assay: Antiviral spectrum, cellular assay (fold resistance), strain K; assay type: cell-based; conditions: FR=EC50(mutant strain)/EC50(HIV-1 strain LAI)
Description: as §1, §2, §3

[14] = tested on: clinically isolated HIV strain A; assay: Antiviral spectrum, cellular assay (fold resistance), strain A; assay type: cell-based; conditions: FR=EC50(mutant strain)/EC50(HIV-1 strain LAI)
Description: as §1, §2, §3

[15] = tested on: clinically isolated HIV strain M; assay: Antiviral spectrum, cellular assay (fold resistance), strain M; assay type: cell-based; conditions: FR=EC50(mutant strain)/EC50(HIV-1 strain LAI)
Description: as §1, §2, §3

[16] = tested on: clinically isolated HIV strain Q; assay: Antiviral spectrum, cellular assay (fold resistance), strain Q; assay type: cell-based; conditions: FR=EC50(mutant strain)/EC50(HIV-1 strain LAI)
Description: as §1, §2, §3

[17] = tested on: clinically isolated HIV strain D; assay: Antiviral spectrum, cellular assay (fold resistance), strain D; assay type: cell-based; conditions: FR=EC50(mutant strain)/EC50(HIV-1 strain LAI)
Description: as §1, §2, §3

[18] = tested on: clinically isolated HIV strain B; assay: Antiviral spectrum, cellular assay (fold resistance), strain B; assay type: cell-based; conditions: FR=EC50(mutant strain)/EC50(HIV-1 strain LAI)
Description: as §1, §2, §3

| SMILES | fold resistance (FR), strain L [1] | fold resistance (FR), strain E [2] | fold resistance (FR), strain S (virus strain S (R13080)) | fold resistance (FR), strain F (virus strain F (R13025)) | fold resistance (FR), strain C [3] | fold resistance (FR), strain N [4] | fold resistance (FR), strain R [5] | fold resistance (FR), strain G [6] | fold resistance (FR), strain H [7] | fold resistance (FR), strain J [8] | fold resistance (FR), strain I [9] | fold resistance (FR), strain T [10] | fold resistance (FR), strain O [11] | fold resistance (FR), strain P [12] | fold resistance (FR), strain K [13] | fold resistance (FR), strain A [14] | fold resistance (FR), strain M [15] | fold resistance (FR), strain Q [16] | fold resistance (FR), strain D [17] | fold resistance (FR), strain B [18] |
| --- | --- | --- | --- | --- | --- | --- | --- | --- | --- | --- | --- | --- | --- | --- | --- | --- | --- | --- | --- | --- |
| CC(=O)N(C)c1nc2ccc(S(=O)(=O)N(CC(C)C)CC(O)C(Cc3ccccc3)NC(=O)OC3COC4OCCC34)cc2s1 (mixture of isomers) [Compound 9] | 0.7 | 2.3 | 29.3 | 13.0 | 1.6 | 1.5 | 1.2 | 1.5 | 6.7 | 6.2 | 2.3 | 550.9 | 3.7 | 0.2 | 1.0 | 1.5 | 0.5 | 1.8 | 5.7 | 1.5 |
| CC(=O)Nc1nc2ccc(S(=O)(=O)N(CC(C)C)CC(O)C(Cc3ccccc3)NC(=O)OC3COC4OCCC34)cc2s1 (mixture of isomers) [Compound 1] | 0.2 | 0.6 | 1.0 | 0.8 | 0.7 | 1.0 | 0.7 | 0.3 | 0.9 | 0.5 | 0.8 | 5.1 | 0.4 | 0.2 | 0.4 | 0.4 | 0.5 | 0.8 | 0.7 | 0.3 |
| CC(C)CN(C[C@@H](O)[C@H](Cc1ccccc1)NC(=O)O[C@H]1CCOC1)S(=O)(=O)c1ccc2nc(NC(=O)CN3CCNCC3)sc2c1 [Compound 35] | 0.2 | 0.9 | 4.3 | 2.1 | 0.6 | 1.1 | 0.9 | 0.5 | 0.8 | 0.8 | 0.8 | 22.2 | 0.3 | 0.2 | 0.4 | 0.5 | 0.6 | 0.9 | 0.5 | 0.9 |

Source: US7659404B2, “Broad spectrum 2-(substituted-amino)-benzothiazole sulfonamide HIV protease inhibitors” (Tibotec Pharmaceuticals Ltd., priority 2001, dated 2010)
